The record followed here is patent publication US7625911B2, “Amorphous form of erlotinib hydrochloride and its solid amorphous dispersion” (Mai De Ltd., priority 2005, dated 2009).

A short description of the data set: Solubility (complete dissolution) of erlotinib hydrochloride in alcohol solvents at elevated temperature. In kind it is physicochemical. The text has this:
In a first step of the distillation process, crystalline erlotinib hydrochloride is preferably dissolved in an […] solvent; more preferably dissolved in a straight or branched chain C1-C4 alcohol solvent, and most preferably dissolved in methanol or ethanol to form a solution. Erlotinib hydrochloride has the highest solubility in methanol or ethanol, allowing the complete dissolution of erlotinib hydrochloride at elevated temperature.
In particular, erlotinib hydrochloride is soluble in methanol at or over 50° C., allowing the complete dissolution of erlotinib hydrochloride in methanol at 50° C. or above with a concentration of 10 mg per milliliter (ml). The use of a relatively concentrated solution, e.g. about 10 mg per ml is therefore preferred for methanol.
In particular, erlotinib hydrochloride is soluble in ethanol at or over 70° C., allowing the complete dissolution of erlotinib hydrochloride in ethanol at […] with a concentration of 10 mg per ml. The use of a relatively concentrated solution, e.g. about 10 mg per ml is therefore preferred for ethanol.
In particular, erlotinib hydrochloride is soluble in methanol, ethanol or a mixture of ethanol and water solvents at 45° C.-55° C., allowing the complete dissolution of erlotinib hydrochloride in methanol or ethanol at this elevated temperature with a concentration of about 10 mg per ml. The use of a relatively concentrated solution, e.g. about 10 mg per ml or over is therefore preferred for spraying drying process.

For `C#Cc1cccc(Nc2ncnc3cc(OCCOC)c(OCCOC)cc23)c1.Cl` [erlotinib hydrochloride, [6,7-bis(2-methoxy-ethoxy)-quinazolin-4-yl]-(3-ethynyl-phenyl) amine hydrochloride], the “concentration at complete dissolution in ethanol” value (ethanol, soluble at or over 70° C. (sentence also says ambient temperature)) worked out at 10 mg per ml. Under “methanol, at 50° C. or above”, the “concentration at complete dissolution in methanol” value is given as 10 mg per milliliter (ml). In addition, the “concentration at complete dissolution in methanol, ethanol or a mixture of ethanol and water” value (methanol, ethanol or ethanol/water mixture, 45° C.-55° C.) is reported as “about 10 mg per ml”.
